Experiments:
Assay type in all cases: cell-based
S. aureus PIII [1] = assay: Broth microdilution MIC
Method: (§1) Broth microdilution tests were performed according to NCCLS guidelines. Serial two-fold dilutions of each imidazolium salt (from an original working solution which had been 0.22 μm sterile filtered) in Mueller-Hinton Broth (MHB) (100 μl) were prepared in 96-well micro-titre plates over the range 0.0000625-1% w/v. The inoculum to be tested was prepared by adjusting the turbidity of an actively overnight growing broth culture in MHB to an optical density at 550 nm equivalent to 1×10^8 CFU/ml. The suspension was further diluted to provide a final inoculum density of 2×10^5 CFU/ml in MHB as verified by total viable count. The inoculum to be tested (100 μl, 2×10^5 CFU ml^−1) was added to each well of the microdilution trays which were incubated aerobically for 24 h at 37° C. Positive and negative growth controls were included in every assay (6 replicates). After determining the MICs, minimum bactericidal concentrations (MBCs) were determined by spreading 20 μl of suspension from wells showing no growth onto MHA plates, which were then incubated for 24 h and examined for 99.9% killing.

S. aureus PIII [2] = assay: Biofilm assay (Calgary Biofilm Device), MBEC; details: S. aureus PIII 24 h biofilm, 24 h challenge
Method: (§2) Biofilms of each test organism were grown in the Calgary Biofilm Device (commercially available as the MBEC Assay™ for Physiology & Genetics, Innovotech Inc., Edmonton, Alberta, Canada). The device, a micro-titre plated based assay, consists of two parts; a microtitre plate containing the inoculated test medium and a polystyrene lid with 96 identical pegs on which the microbial biofilm forms under gyrorotary incubation. The biofilm assay was conducted according to the MBEC™ assay protocol as supplied by the manufacturer, with slight modifications. Inocula of each test organism were prepared in MHB as described above and adjusted to provide a final inoculum density of ˜10^7 CFU ml^−1 (as confirmed by viable count). 150 μl of the inoculated media was transferred to each well of the 96-well microtitre plate and the assay plate lid, bearing 96 pegs was placed into the microtitre plate. The MBEC assay plates were placed in a gyrorotary incubator (37° C., 95% relative humidity) for 24 h to permit growth and comparison of 24 h biofilms of each test strain. Positive and negative growth controls were included in each plate (6 replicates). Initial and 24 h planktonic viable counts were measured, as were 24 h biofilm counts, expressed as CFU peg^−1, according to manufacturers instructions. After 24 h, the peg lid of the MBEC assay plate was gently rinsed three times. After rinsing, the peg lid of the MBEC assay was transferred to a ‘challenge’ plate. Serial dilutions of each imidazolium salt were prepared in 200 μl of MHB containing various concentrations of IL in each well. Positive growth control and sterility control were included in each assay plate. […] Biofilms were dislodged into recovery media by sonication for 5 minutes and the peg lid discarded. The recovery plate is incubated overnight and visually checked after 24 h for turbidity. In addition, optical density measurements for each plate were recorded at 550 nm. Clear wells were taken as evidence of biofilm eradication and the MBEC value was assigned as the lowest concentration at which no growth was observed after 24 h incubation. Plates were incubated for a further 24 h to confirm biofilm eradication concentrations.

E. coli NCTC 8196 [3] = assay: Biofilm assay (Calgary Biofilm Device), MBEC; details: E. coli NCTC 8196 24 h biofilm, 24 h challenge
Method: as §2

K. aerogenes NCTC 7427 [4] = assay: Biofilm assay (Calgary Biofilm Device), MBEC; details: K. aerogenes NCTC 7427 24 h biofilm, 24 h challenge
Method: as §2

E-MRSA 15 [5] = assay: Biofilm assay (Calgary Biofilm Device), MBEC; details: E-MRSA 15 24 h biofilm, 24 h challenge
Method: as §2

P. mirabilis NCTC 12442 [6] = assay: Biofilm assay (Calgary Biofilm Device), MBEC; details: P. mirabilis NCTC 12442 24 h biofilm, 24 h challenge
Method: as §2

P. aeruginosa PA01 [7] = assay: Biofilm assay (Calgary Biofilm Device), MBEC; details: P. aeruginosa PA01 24 h biofilm, 24 h challenge
Method: as §2

B. cereus [8] = assay: Biofilm assay (Calgary Biofilm Device), MBEC; details: B. cereus 24 h biofilm, 24 h challenge
Method: as §2

[9] = test system: S. epidermidis ATCC 35984; assay: Biofilm assay (Calgary Biofilm Device), MBEC; details: S. epidermidis ATCC 35984 24 h biofilm, 24 h challenge
Method: as §2

C. tropicalis NCTC 7393 [10] = assay: Biofilm assay (Calgary Biofilm Device), MBEC; details: C. tropicalis NCTC 7393 24 h biofilm, 24 h challenge
Method: as §2

E. coli NCTC 8196 [11] = assay: Broth microdilution MIC/MBC; details: for MBC: E. coli NCTC 8196, 99.9% killing; for MIC: E. coli NCTC 8196, 24 h at 37° C.
Method: as §1

K. aerogenes NCTC 7427 [12] = assay: Broth microdilution MIC/MBC; details: for MBC: K. aerogenes NCTC 7427, 99.9% killing; for MIC: K. aerogenes NCTC 7427, 24 h at 37° C.
Method: as §1

E-MRSA 15 [13] = assay: Broth microdilution MIC/MBC; details: for MBC: E-MRSA 15, 99.9% killing; for MIC: E-MRSA 15, 24 h at 37° C.
Method: as §1

P. mirabilis NCTC 12442 [14] = assay: Broth microdilution MIC/MBC; details: for MBC: P. mirabilis NCTC 12442, 99.9% killing; for MIC: P. mirabilis NCTC 12442, 24 h at 37° C.
Method: as §1

P. aeruginosa PA01 [15] = assay: Broth microdilution MIC/MBC; details: for MBC: P. aeruginosa PA01, 99.9% killing; for MIC: P. aeruginosa PA01, 24 h at 37° C., read-out: MIC
Method: as §1

B. cereus [16] = assay: Broth microdilution MIC/MBC; details: for MBC: 99.9% killing; for MIC: 24 h at 37° C.
Method: as §1

[17] = test system: S. epidermidis ATCC 35984; assay: Broth microdilution MIC/MBC; details: for MBC: S. epidermidis ATCC 35984, 99.9% killing; for MIC: S. epidermidis ATCC 35984, 24 h at 37° C.
Method: as §1

C. tropicalis NCTC 7393 [18] = assay: Broth microdilution MIC/MBC; details: for MBC: C. tropicalis NCTC 7393, 99.9% killing; for MIC: C. tropicalis NCTC 7393, 24 h at 37° C.
Method: as §1

[19] = test system: S. epidermidis ATCC 12228; assay: Broth microdilution MIC/MBC; details: for MBC: S. epidermidis ATCC 12228, 99.9% killing; for MIC: S. epidermidis ATCC 12228, 24 h at 37° C.
Method: as §1

S. aureus ATCC 29213 = assay: Broth microdilution MIC/MBC; details: for MBC: S. aureus ATCC 29213, 99.9% killing; for MIC: S. aureus ATCC 29213, 24 h at 37° C.
Method: as §1

Q: How did the MIC (S. aureus PIII [1]) turn out when `CCCCCCCCCCCC[n+]1cccc2ccccc21.[Br-]` [1-alkyl-3-quinolinium bromides 12] was run?
A: 25.81 µM

Q: And the MBEC (S. aureus PIII [2])?
A: 619.5 µM

Q: What about the MBEC (E. coli NCTC 8196 [3]) of the same compound?
A: 827.94 µM

Q: What about the MBEC (K. aerogenes NCTC 7427 [4]) of the same compound?
A: 981.25 µM

Q: What about the MBEC (E-MRSA 15 [5]) of the same compound?
A: 827.94 µM

Q: What about the MBEC (P. mirabilis NCTC 12442 [6]) of the same compound?
A: 1655.88 µM

Q: And the MBEC (P. aeruginosa PA01 [7])?
A: 413.97 µM

Q: And the MBEC (B. cereus [8])?
A: 774.25 µM

Q: And the MBEC [9]?
A: 413.97 µM

Q: What about the MBEC (C. tropicalis NCTC 7393 [10]) of the same compound?
A: 413.87 µM

Q: What about the MBC (E. coli NCTC 8196 [11]) of the same compound?
A: 38.7 µM

Q: What about the MIC (E. coli NCTC 8196 [11]) of the same compound?
A: 25.81 µM

Q: What about the MBC (K. aerogenes NCTC 7427 [12]) of the same compound?
A: 38.7 µM

Q: And the MIC (K. aerogenes NCTC 7427 [12])?
A: 12.9 µM

Q: And the MBC (E-MRSA 15 [13])?
A: 25.8 µM

Q: And the MIC (E-MRSA 15 [13])?
A: 25.8 µM

Q: And the MBC (P. mirabilis NCTC 12442 [14])?
A: 51.6 µM

Q: And the MIC (P. mirabilis NCTC 12442 [14])?
A: 25.81 µM

Q: And the MBC (P. aeruginosa PA01 [15])?
A: 90.33 µM

Q: What about the MIC (P. aeruginosa PA01 [15]) of the same compound?
A: 51.64 µM

Q: And the MBC (B. cereus [16])?
A: 77.4 µM

Q: And the MIC (B. cereus [16])?
A: 51.63 µM

Q: What about the MBC [17] of the same compound?
A: 25.8 µM

Q: And the MIC [17]?
A: 12.9 µM

Q: And the MBC (C. tropicalis NCTC 7393 [18])?
A: 25.8 µM

Q: And the MIC (C. tropicalis NCTC 7393 [18])?
A: 12.9 µM

Q: What about the MBC [19] of the same compound?
A: 25.8 µM

Q: What about the MIC [19] of the same compound?
A: 12.9 µM

Q: What about the MBC (S. aureus ATCC 29213) of the same compound?
A: 51.6 µM

Q: What about the MIC (S. aureus ATCC 29213) of the same compound?
A: 25.81 µM

Q: Which MIC (S. aureus PIII [1]) does the source give for `CCCCCCCCCCCCCC[n+]1cccc2ccccc21.[Br-]` [1-alkyl-3-quinolinium bromides 14] here?
A: 5.8 µM

Q: And the MBEC (S. aureus PIII [2])?
A: 91.11 µM

Q: What about the MBEC (E. coli NCTC 8196 [3]) of the same compound?
A: 136.66 µM

Q: And the MBEC (K. aerogenes NCTC 7427 [4])?
A: 136.66 µM

Q: What about the MBEC (E-MRSA 15 [5]) of the same compound?
A: 136.66 µM

Q: And the MBEC (P. mirabilis NCTC 12442 [6])?
A: 546.64 µM

Q: What about the MBEC (P. aeruginosa PA01 [7]) of the same compound?
A: 136.66 µM

Q: And the MBEC (B. cereus [8])?
A: 273.32 µM

Q: What about the MBEC [9] of the same compound?
A: 68.33 µM

Q: What about the MBEC (C. tropicalis NCTC 7393 [10]) of the same compound?
A: 68.33 µM

Q: What about the MBC (E. coli NCTC 8196 [11]) of the same compound?
A: 11.6 µM

Q: What about the MIC (E. coli NCTC 8196 [11]) of the same compound?
A: 11.6 µM

Q: What about the MBC (K. aerogenes NCTC 7427 [12]) of the same compound?
A: 11.6 µM

Q: And the MIC (K. aerogenes NCTC 7427 [12])?
A: 5.8 µM

Q: What about the MBC (E-MRSA 15 [13]) of the same compound?
A: 5.8 µM

Q: What about the MIC (E-MRSA 15 [13]) of the same compound?
A: 5.8 µM

Q: What about the MBC (P. mirabilis NCTC 12442 [14]) of the same compound?
A: 5.8 µM

Q: And the MIC (P. mirabilis NCTC 12442 [14])?
A: 5.8 µM

Q: What about the MBC (P. aeruginosa PA01 [15]) of the same compound?
A: 23.95 µM

Q: What about the MIC (P. aeruginosa PA01 [15]) of the same compound?
A: 23.95 µM

Q: And the MBC (B. cereus [16])?
A: 29.75 µM

Q: What about the MIC (B. cereus [16]) of the same compound?
A: 23.95 µM

Q: And the MBC [17]?
A: 5.8 µM

Q: What about the MIC [17] of the same compound?
A: 5.8 µM

Q: What about the MBC (C. tropicalis NCTC 7393 [18]) of the same compound?
A: 3 µM

Q: What about the MIC (C. tropicalis NCTC 7393 [18]) of the same compound?
A: 3 µM

Q: What about the MBC [19] of the same compound?
A: 5.8 µM

Q: And the MIC [19]?
A: 3 µM

Q: And the MBC (S. aureus ATCC 29213)?
A: 5.8 µM

Q: And the MIC (S. aureus ATCC 29213)?
A: 5.8 µM

Q: Which results are given for `CCCCCCCCCCCCCCCC[n+]1cccc2ccccc21.[Br-]` [1-alkyl-3-quinolinium bromides 16]?
A: MIC (S. aureus PIII [1]): 70.24 µM; MBEC (S. aureus PIII [2]): 1123.84 µM; MBEC (E. coli NCTC 8196 [3]): 561.92 µM; MBEC (K. aerogenes NCTC 7427 [4]): 561.92 µM; MBEC (E-MRSA 15 [5]): 1123.84 µM; MBEC (P. mirabilis NCTC 12442 [6]): 2247.68 µM; MBEC (P. aeruginosa PA01 [7]): 1123.84 µM; MBEC (B. cereus [8]): 1123.84 µM; MBEC [9]: 561.92 µM; MBEC (C. tropicalis NCTC 7393 [10]): 561.92 µM; MBC (E. coli NCTC 8196 [11]): 70.24 µM; MIC (E. coli NCTC 8196 [11]): 35.12 µM; MBC (K. aerogenes NCTC 7427 [12]): 35.12 µM; MIC (K. aerogenes NCTC 7427 [12]): 35.12 µM; MBC (E-MRSA 15 [13]): 70.24 µM; MIC (E-MRSA 15 [13]): 35.12 µM; MIC (P. mirabilis NCTC 12442 [14]): 70.24 µM; MIC (P. aeruginosa PA01 [15]): 70.24 µM; MIC (B. cereus [16]): 140.48 µM; MBC [17]: 35.12 µM; MIC [17]: 35.12 µM; MBC (C. tropicalis NCTC 7393 [18]): 70.24 µM; MIC (C. tropicalis NCTC 7393 [18]): 35.12 µM; MBC [19]: 35.12 µM; MIC [19]: 35.12 µM; MBC (S. aureus ATCC 29213): 70.24 µM; MIC (S. aureus ATCC 29213): 70.24 µM

Reference: patent US20110144079A1, “ANTIMICROBIAL SYSTEM” (priority 2008, published 2011)
